{"source": "paper PMC11108826", "about": "(Synthetic and Systems Biotechnology, 2024)", "target": "T1, ORF-L16 (Saccharopolyspora spinosa, UniProt Q9ALP2)", "T1 sequence (Q9ALP2 1-278)": "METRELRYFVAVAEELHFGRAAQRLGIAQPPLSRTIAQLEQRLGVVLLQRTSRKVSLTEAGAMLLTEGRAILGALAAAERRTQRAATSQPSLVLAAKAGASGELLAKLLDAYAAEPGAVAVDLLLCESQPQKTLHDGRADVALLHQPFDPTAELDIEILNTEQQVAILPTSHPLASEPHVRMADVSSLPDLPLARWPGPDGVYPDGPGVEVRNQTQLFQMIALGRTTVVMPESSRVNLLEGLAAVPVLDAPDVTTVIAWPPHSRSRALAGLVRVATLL", "test": "isothermal titration calorimetry", "type": "binding"}
{"smiles": "CC[C@H]1CCC[C@H](O[C@H]2CC[C@H](N(C)C)[C@@H](C)O2)[C@@H](C)C(=O)C2=C[C@@H]3[C@@H](C=C[C@@H]4C[C@@H](O[C@@H]5O[C@@H](C)[C@H](OC)[C@@H](OC)[C@H]5OC)C[C@@H]34)[C@@H]2CC(=O)O1", "note": "[spinosyn A]", "values": [{"measurement": "Kd", "value": "2360 ± 40", "unit": "nM"}]}
